Test results from the kinase profiling compilation of Christmann-Franck et al. (2016).

Experiments:
Test in all cases: radiometric filter-binding kinase assay
[1] = target: BTK (human) (UniProt Q06187)
[2] = target: CDK2 CCNA2 (human) (UniProt P20248+P24941)
[3] = target: CHEK1 (human) (UniProt O14757)
[4] = target: CSNK2A1 (human) (UniProt P68400)
[5] = target: DAPK1 (human) (UniProt P53355)
[6] = target: EEF2K (human) (UniProt O00418)
[7] = target: EPHA4 (human) (UniProt P54764)
[8] = target: EPHB1 (human) (UniProt P54762)
[9] = target: EPHB4 (human) (UniProt P54760)
[10] = target: GCK (human) (UniProt Q12851)
[11] = target: IKBKB (human) (UniProt O14920)
[12] = target: INSRR (human) (UniProt P14616)
[13] = target: MAP2K1 (human) (UniProt Q02750)
[14] = target: MAP2K2 (human) (UniProt P36507)
[15] = target: MAP3K5 (human) (UniProt Q99683)
[16] = target: MAP3K9 (human) (UniProt P80192)
[17] = target: MAPK9 (human) (UniProt P45984)
[18] = target: MAPKAPK2 (human) (UniProt P49137)
[19] = target: MARK3 (human) (UniProt P27448)
[20] = target: MARK4 (human) (UniProt Q96L34)
[21] = target: MKNK2 (human) (UniProt Q9HBH9)
[22] = target: MYLK (human) (UniProt Q15746)
[23] = target: NEK6 (human) (UniProt Q9HC98)
[24] = system: PAK2 (human), Q13177 [T402E]
[25] = target: PAK6 (human) (UniProt Q9NQU5)
[26] = target: PIM1 (human) (UniProt P11309)
[27] = target: PIM2 (human) (UniProt Q9P1W9)
[28] = target: PIM3 (human) (UniProt Q86V86)
[29] = target: PKN2 (human) (UniProt Q16513)
[30] = target: RPS6KA5 KD1 KD2 (human) (UniProt O75582)
RPS6KA5 KD1 KD2 (human), sequence (O75582 whole entry, looked up): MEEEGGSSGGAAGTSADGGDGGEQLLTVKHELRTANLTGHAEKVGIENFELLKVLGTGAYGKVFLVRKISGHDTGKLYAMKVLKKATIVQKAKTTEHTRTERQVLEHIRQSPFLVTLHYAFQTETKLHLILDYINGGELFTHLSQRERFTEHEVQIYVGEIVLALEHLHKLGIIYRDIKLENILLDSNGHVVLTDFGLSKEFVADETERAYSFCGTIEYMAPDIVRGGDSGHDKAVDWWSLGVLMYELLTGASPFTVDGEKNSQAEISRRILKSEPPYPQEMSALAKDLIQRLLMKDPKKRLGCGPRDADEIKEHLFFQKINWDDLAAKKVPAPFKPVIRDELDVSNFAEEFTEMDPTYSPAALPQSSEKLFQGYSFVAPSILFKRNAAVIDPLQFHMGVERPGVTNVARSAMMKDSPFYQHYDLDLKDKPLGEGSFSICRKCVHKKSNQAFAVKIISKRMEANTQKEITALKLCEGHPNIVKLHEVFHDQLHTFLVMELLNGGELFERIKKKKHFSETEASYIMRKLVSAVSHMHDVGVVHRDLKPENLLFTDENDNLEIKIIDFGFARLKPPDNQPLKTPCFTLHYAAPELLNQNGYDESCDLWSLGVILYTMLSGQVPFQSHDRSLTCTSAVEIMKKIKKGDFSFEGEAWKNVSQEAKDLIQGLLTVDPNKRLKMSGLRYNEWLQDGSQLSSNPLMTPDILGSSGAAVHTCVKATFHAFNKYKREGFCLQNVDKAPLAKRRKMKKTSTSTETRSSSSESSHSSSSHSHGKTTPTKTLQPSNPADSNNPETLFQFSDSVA

[31] = system: RPS6KB1 (human), P23443 [T412E]
[32] = target: SRPK1 (human) (UniProt Q96SB4)
SRPK1 (human), sequence (Q96SB4 whole entry, looked up): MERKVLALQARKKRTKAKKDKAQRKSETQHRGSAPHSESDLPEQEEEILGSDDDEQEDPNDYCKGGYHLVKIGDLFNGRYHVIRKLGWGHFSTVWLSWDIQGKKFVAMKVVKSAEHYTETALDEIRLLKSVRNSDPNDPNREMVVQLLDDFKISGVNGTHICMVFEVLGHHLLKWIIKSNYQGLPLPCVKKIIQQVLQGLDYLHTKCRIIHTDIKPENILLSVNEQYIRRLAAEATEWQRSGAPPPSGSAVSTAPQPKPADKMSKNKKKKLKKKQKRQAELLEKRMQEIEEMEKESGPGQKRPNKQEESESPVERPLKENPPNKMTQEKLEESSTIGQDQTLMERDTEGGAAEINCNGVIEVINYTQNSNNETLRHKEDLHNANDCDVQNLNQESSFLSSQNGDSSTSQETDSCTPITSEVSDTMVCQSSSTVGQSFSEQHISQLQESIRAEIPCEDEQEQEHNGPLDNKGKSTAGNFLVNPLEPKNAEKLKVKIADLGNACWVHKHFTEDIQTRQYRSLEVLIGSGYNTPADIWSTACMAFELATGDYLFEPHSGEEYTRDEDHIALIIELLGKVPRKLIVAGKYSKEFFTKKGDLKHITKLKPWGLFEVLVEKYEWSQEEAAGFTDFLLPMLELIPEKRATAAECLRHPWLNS

[33] = target: STK3 (human) (UniProt Q13188)
[34] = target: TBK1 (human) (UniProt Q9UHD2)
[35] = target: TTK (human) (UniProt P33981)
[36] = target: YES1 (human) (UniProt P07947)

EEF2K (human), sequence (O00418 whole entry, looked up): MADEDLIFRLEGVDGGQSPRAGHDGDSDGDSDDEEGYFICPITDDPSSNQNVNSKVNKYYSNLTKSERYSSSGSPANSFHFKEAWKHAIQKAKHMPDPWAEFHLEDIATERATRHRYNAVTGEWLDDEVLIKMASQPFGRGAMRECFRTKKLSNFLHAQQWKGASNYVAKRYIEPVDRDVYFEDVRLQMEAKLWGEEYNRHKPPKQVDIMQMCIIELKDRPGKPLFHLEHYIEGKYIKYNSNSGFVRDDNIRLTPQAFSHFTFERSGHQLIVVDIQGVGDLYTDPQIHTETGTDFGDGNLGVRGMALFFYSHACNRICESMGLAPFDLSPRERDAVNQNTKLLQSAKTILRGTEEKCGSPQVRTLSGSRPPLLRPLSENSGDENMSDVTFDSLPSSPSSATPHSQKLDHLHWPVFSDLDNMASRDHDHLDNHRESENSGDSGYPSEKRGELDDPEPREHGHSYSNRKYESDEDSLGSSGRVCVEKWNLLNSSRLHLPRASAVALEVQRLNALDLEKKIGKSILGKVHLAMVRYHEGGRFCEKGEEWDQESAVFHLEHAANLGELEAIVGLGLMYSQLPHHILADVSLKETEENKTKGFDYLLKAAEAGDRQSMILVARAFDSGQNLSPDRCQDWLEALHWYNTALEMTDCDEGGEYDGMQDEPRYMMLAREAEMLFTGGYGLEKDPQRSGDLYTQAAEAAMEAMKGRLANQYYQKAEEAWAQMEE
CHEK1 (human), sequence (O14757 whole entry, looked up): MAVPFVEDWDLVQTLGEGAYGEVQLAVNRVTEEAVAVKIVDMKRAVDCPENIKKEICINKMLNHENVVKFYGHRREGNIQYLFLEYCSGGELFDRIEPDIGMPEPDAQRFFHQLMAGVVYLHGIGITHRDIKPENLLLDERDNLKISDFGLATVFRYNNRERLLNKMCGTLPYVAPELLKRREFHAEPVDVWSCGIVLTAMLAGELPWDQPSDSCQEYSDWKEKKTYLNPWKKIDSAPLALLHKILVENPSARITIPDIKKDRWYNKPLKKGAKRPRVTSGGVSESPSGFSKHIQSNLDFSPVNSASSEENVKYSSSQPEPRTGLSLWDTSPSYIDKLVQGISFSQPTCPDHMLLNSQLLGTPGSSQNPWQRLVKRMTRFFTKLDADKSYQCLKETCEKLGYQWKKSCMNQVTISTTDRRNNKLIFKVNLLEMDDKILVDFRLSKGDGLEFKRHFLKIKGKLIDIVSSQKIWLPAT
EPHA4 (human), sequence (P54764 whole entry, looked up): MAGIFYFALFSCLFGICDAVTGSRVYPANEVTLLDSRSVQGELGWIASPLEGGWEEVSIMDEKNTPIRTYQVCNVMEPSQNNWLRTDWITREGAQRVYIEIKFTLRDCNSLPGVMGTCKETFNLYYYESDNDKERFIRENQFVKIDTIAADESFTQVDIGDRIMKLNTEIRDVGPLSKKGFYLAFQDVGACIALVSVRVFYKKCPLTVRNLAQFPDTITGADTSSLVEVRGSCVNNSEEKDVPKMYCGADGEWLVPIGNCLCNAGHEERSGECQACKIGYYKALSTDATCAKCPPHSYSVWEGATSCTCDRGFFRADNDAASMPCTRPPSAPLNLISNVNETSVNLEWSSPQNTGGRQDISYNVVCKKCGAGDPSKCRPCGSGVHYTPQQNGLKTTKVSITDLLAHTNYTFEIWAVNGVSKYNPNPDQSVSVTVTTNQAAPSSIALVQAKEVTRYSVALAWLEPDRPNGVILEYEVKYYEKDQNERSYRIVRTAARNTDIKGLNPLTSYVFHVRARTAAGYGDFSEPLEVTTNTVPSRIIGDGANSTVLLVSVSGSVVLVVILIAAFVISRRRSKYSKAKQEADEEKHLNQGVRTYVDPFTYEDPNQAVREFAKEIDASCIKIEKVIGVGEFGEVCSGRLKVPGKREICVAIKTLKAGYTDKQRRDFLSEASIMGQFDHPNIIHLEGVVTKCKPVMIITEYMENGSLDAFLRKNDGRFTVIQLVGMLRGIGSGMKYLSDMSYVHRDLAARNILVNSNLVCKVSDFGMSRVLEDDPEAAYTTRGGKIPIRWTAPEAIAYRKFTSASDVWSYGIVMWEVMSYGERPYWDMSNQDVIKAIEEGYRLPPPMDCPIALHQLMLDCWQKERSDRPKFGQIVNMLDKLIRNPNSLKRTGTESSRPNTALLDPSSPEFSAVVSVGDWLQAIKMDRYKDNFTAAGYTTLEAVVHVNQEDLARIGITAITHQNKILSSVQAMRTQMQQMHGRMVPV
DAPK1 (human), sequence (P53355 whole entry, looked up): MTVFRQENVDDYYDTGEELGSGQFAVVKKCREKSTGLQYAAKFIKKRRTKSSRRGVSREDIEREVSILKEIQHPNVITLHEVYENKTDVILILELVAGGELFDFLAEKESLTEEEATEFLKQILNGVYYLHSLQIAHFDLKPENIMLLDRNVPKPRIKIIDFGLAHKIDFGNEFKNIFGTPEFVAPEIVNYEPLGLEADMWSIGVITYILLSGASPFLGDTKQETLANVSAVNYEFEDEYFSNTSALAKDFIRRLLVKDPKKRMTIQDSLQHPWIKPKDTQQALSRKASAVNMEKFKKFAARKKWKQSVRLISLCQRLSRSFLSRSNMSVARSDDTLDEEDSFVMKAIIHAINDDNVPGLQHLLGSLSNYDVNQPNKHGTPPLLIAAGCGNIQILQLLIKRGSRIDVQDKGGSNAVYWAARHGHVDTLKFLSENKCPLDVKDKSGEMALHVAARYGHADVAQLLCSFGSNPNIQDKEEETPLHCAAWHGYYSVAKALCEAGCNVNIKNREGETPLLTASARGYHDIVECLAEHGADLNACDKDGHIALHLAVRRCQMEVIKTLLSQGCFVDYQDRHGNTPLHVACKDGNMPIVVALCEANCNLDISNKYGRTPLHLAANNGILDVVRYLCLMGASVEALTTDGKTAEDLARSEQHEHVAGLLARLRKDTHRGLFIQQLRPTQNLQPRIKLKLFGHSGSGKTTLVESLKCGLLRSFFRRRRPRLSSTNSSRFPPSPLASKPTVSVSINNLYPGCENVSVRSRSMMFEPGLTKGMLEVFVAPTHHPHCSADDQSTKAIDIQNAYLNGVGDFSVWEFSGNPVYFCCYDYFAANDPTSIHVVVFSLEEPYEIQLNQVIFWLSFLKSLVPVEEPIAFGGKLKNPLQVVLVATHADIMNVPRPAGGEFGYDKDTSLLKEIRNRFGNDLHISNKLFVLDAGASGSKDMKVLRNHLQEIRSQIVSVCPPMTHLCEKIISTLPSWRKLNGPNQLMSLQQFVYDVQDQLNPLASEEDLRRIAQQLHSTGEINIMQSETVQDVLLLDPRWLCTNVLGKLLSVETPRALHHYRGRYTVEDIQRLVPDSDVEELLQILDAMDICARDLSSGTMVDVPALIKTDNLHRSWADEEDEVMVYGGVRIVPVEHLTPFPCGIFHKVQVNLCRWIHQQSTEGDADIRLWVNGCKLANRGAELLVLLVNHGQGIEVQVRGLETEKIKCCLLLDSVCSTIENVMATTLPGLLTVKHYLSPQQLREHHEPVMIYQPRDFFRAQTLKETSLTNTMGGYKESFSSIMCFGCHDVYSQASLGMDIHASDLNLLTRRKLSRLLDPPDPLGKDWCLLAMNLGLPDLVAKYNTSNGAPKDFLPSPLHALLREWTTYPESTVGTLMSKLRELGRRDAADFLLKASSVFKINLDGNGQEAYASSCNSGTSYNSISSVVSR

## CCCCCc1ccc(/C=C/[C@H](O)[C@@H](CO)NC)cc1
[1]; compound 1.0 µM
  residual activity: 103%
[1]; compound 10.0 µM
  residual activity: 103%
[2]; compound 0.1 µM
  residual activity: 98%
[2]; compound 1.0 µM
  residual activity: 79%
[2]; compound 10.0 µM
  residual activity: 88%
[3]; compound 0.1 µM
  residual activity: 96%
[3]; compound 1.0 µM
  residual activity: 92%
[3]; compound 10.0 µM
  residual activity: 86%
[4]; compound 0.1 µM
  residual activity: 78%
[4]; compound 1.0 µM
  residual activity: 87%
[4]; compound 10.0 µM
  residual activity: 83%
[5]; compound 0.1 µM
  residual activity: 109%
[5]; compound 1.0 µM
  residual activity: 101%
[5]; compound 10.0 µM
  residual activity: 103%
[6]; compound 0.1 µM
  residual activity: 93%
[6]; compound 1.0 µM
  residual activity: 76%
[6]; compound 10.0 µM
  residual activity: 69%
[7]; compound 0.1 µM
  residual activity: 100%
[7]; compound 1.0 µM
  residual activity: 101%
[7]; compound 10.0 µM
  residual activity: 96%
[8]; compound 0.1 µM
  residual activity: 126%
[8]; compound 1.0 µM
  residual activity: 108%
[8]; compound 10.0 µM
  residual activity: 115%
[9]; compound 0.1 µM
  residual activity: 122%
[9]; compound 1.0 µM
  residual activity: 101%
[9]; compound 10.0 µM
  residual activity: 123%
[10]; compound 0.1 µM
  residual activity: 86%
[10]; compound 1.0 µM
  residual activity: 72%
[10]; compound 10.0 µM
  residual activity: 71%
[11]; compound 0.1 µM
  residual activity: 91%
[11]; compound 1.0 µM
  residual activity: 97%
[11]; compound 10.0 µM
  residual activity: 100%
[12]; compound 0.1 µM
  residual activity: 99%
[12]; compound 1.0 µM
  residual activity: 94%
[12]; compound 10.0 µM
  residual activity: 100%
[13]; compound 0.1 µM
  residual activity: 97%
[13]; compound 1.0 µM
  residual activity: 102%
[13]; compound 10.0 µM
  residual activity: 97%
[14]; compound 0.1 µM
  residual activity: 104%
[14]; compound 1.0 µM
  residual activity: 103%
[14]; compound 10.0 µM
  residual activity: 109%
[15]; compound 0.1 µM
  residual activity: 115%
[15]; compound 1.0 µM
  residual activity: 99%
[15]; compound 10.0 µM
  residual activity: 94%
[16]; compound 0.1 µM
  residual activity: 105%
[16]; compound 1.0 µM
  residual activity: 108%
[16]; compound 10.0 µM
  residual activity: 100%
[17]; compound 0.1 µM
  residual activity: 85%
[17]; compound 1.0 µM
  residual activity: 90%
[17]; compound 10.0 µM
  residual activity: 88%
[18]; compound 0.1 µM
  residual activity: 98%
[18]; compound 1.0 µM
  residual activity: 95%
[18]; compound 10.0 µM
  residual activity: 91%
[19]; compound 0.1 µM
  residual activity: 101%
[19]; compound 1.0 µM
  residual activity: 107%
[19]; compound 10.0 µM
  residual activity: 105%
[20]; compound 0.1 µM
  residual activity: 90%
[20]; compound 1.0 µM
  residual activity: 89%
[20]; compound 10.0 µM
  residual activity: 93%
[21]; compound 0.1 µM
  residual activity: 111%
[21]; compound 1.0 µM
  residual activity: 98%
[21]; compound 10.0 µM
  residual activity: 102%
[22]; compound 0.1 µM
  residual activity: 90%
[22]; compound 1.0 µM
  residual activity: 95%
[22]; compound 10.0 µM
  residual activity: 91%
[23]; compound 0.1 µM
  residual activity: 92%
[23]; compound 1.0 µM
  residual activity: 86%
[23]; compound 10.0 µM
  residual activity: 84%
[24]; compound 0.1 µM
  residual activity: 113%
[24]; compound 1.0 µM
  residual activity: 103%
[24]; compound 10.0 µM
  residual activity: 113%
[25]; compound 0.1 µM
  residual activity: 105%
[25]; compound 1.0 µM
  residual activity: 108%
[25]; compound 10.0 µM
  residual activity: 103%
[26]; compound 0.1 µM
  residual activity: 100%
[26]; compound 1.0 µM
  residual activity: 95%
[26]; compound 10.0 µM
  residual activity: 95%
[27]; compound 0.1 µM
  residual activity: 103%
[27]; compound 1.0 µM
  residual activity: 109%
[27]; compound 10.0 µM
  residual activity: 97%
[28]; compound 0.1 µM
  residual activity: 118%
[28]; compound 1.0 µM
  residual activity: 121%
[28]; compound 10.0 µM
  residual activity: 107%
[29]; compound 0.1 µM
  residual activity: 78%
[29]; compound 1.0 µM
  residual activity: 70%
[29]; compound 10.0 µM
  residual activity: 58%
[30]; compound 0.1 µM
  residual activity: 110%
[30]; compound 1.0 µM
  residual activity: 104%
[30]; compound 10.0 µM
  residual activity: 95%
[31]; compound 0.1 µM
  residual activity: 114%
[31]; compound 1.0 µM
  residual activity: 108%
[31]; compound 10.0 µM
  residual activity: 100%
[32]; compound 0.1 µM
  residual activity: 92%
[32]; compound 1.0 µM
  residual activity: 89%
[32]; compound 10.0 µM
  residual activity: 83%
[33]; compound 0.1 µM
  residual activity: 96%
[33]; compound 1.0 µM
  residual activity: 90%
[33]; compound 10.0 µM
  residual activity: 94%
[34]; compound 0.1 µM
  residual activity: 111%
[34]; compound 10.0 µM
  residual activity: 93%
[35]; compound 0.1 µM
  residual activity: 95%
[35]; compound 1.0 µM
  residual activity: 91%
[35]; compound 10.0 µM
  residual activity: 86%
[36]; compound 0.1 µM
  residual activity: 123%
[36]; compound 1.0 µM
  residual activity: 100%
[36]; compound 10.0 µM
  residual activity: 109%
